# How the values were obtained:
# SAN cells = assay: Spontaneous APs / pacing rate of isolated SAN cells from WT mice (patch clamp); format: cell-based, mouse; details: 2 μM TRAM-34 added to 50 nM isoproterenol
# Description: (§1) WT and CASQ2 D307H KI mice were anesthetized with isofluorane and sacrificed by cervical dislocation. The heart was rapidly removed and transferred into Tyrode solution containing heparin. […] The area was cleaned, cut into small strips and washed into a Low Calcium Solution, containing (in mM): 140 NaCl, 5.4 KCl, 0.5 MgCl2, 1.2 KH2PO4, 5 HEPES-NaOH, 50 taurine, 5.5 glucose (pH 6.9). The osmolarity was adjusted if needed to 315 mOsm.
# The same solution, supplemented with 1 mg/ml albumin, 200 μM CaCl2, collagenase Type I (Worthington) or liberase TH (Roche), protease (Sigma) and elastase (Sigma) was used for enzymatic digestion as previously described [See, Mesirca, P., et al. Nat Commun 5, 4664 (2014)]. In this step, the tissue was gently resuspended with a polished Pasteur pipette in this solution for 9-13 minutes at 37° C. SAN samples were then washed three times in a modified “Kraftbrühe” solution, containing (in mM): 70 glutamic acid, 80 KOH, 20 KCl, 10 γ-Hydroxybutyric acid sodium salt, 10 KH2PO4, 10 HEPES-KOH, 10 taurine, 1 mg/ml albumin, 0.1 EGTA-KOH (pH 7.2). The same solution was used to re-suspend the single cells with a pipet by vigorous up and down, between 3 to 5 minutes at 37° C. Cells were then gradually exposed to increasing concentrations of calcium, following a “Ca^2+ readaptation” protocol [Mesirca et al., 2014, supra]. Experiments were performed the same day at 33° C.
# In all experiments, the coverslips were perfused at 33° C. with an external solution containing (in mM): 140 NaCl, 4 KCl, 11 Glucose, 1.2 MgCl2, 1.8 CaCl2, 5.5 HEPES titrated to pH 7.4 with NaOH and adjusted at 320 mOsm with sucrose.
# The spontaneous automaticity of isolated SAN cells was recorded under perforated-patch conditions by adding 30 μM β-escin49 to the intracellular solution containing (in mM): 130 KCl, 10 NaCl, 10 HEPES, 0.2 EGTA-KOH, 2 MgATP, 6.6 Phosphocreatine, 0.05 cAMP and 1 μM free Ca^2+ (pH 7.2). To record SK4 K+ current, a voltage ramp protocol was applied. SAN and hiPS-CMs were held at −40 mV and −20 mV, respectively to substantially inactivate voltage-gated Na^+ and Ca^2+ currents. Cells were stepped from −90 mV to +60 mV for 150 ms. Then, a cocktail (solution 1) containing (in mM) 0.3 cadmium, 0.025 ZD-7288 and 0.01 E-4031 was applied extracellularly to inhibit residual L-type and T-type voltage-gated Ca2+ currents, If and the IKr currents, respectively. […] For voltage-clamp recording of SAN cells, the intracellular solution was the same to that described above for recording spontaneous automaticity.
# The spontaneous electric activity of the cell was recorded in the current clamp configuration of the patch clamp technique before (black trace) and during (violet trace) exposure to 2 μM clotrimazole.
# FIG. 5E (Left) presents representative traces of spontaneous APs recorded in single SAN cell from WT mice.
# [1] = test system: SAN cells from CASQ2-D307H KI mice; assay: Spontaneous APs and DADs of isolated SAN cells from CASQ2 D307H KI mice; format: cell-based, mouse; details: 2 μM TRAM-34 added to 50 nM isoproterenol
# Description: as §1
# The same solution, supplemented with 1 mg/ml albumin, 200 μM CaCl2, collagenase Type I (Worthington) or liberase TH (Roche), protease (Sigma) and elastase (Sigma) was used for enzymatic digestion as previously described [See, Mesirca, P., et al. Nat Commun 5, 4664 (2014)]. In this step, the tissue was gently resuspended with a polished Pasteur pipette in this solution for 9-13 minutes at 37° C. SAN samples were then washed three times in a modified “Kraftbrühe” solution, containing (in mM): 70 glutamic acid, 80 KOH, 20 KCl, 10 γ-Hydroxybutyric acid sodium salt, 10 KH2PO4, 10 HEPES-KOH, 10 taurine, 1 mg/ml albumin, 0.1 EGTA-KOH (pH 7.2). […] Cells were then gradually exposed to increasing concentrations of calcium, following a “Ca^2+ readaptation” protocol [Mesirca et al., 2014, supra]. […]
# FIG. 5F (Left) presents representative traces of spontaneous APs recorded in single SAN cell from CASQ2 D307H KI mice. […]
# CASQ2-D307H KI mice = assay: In vivo telemetric ECG recording in CASQ2-D307H KI mice; set-up: species or system mouse; details: 20 mg/kg IP; for number of mice, most severe ECG form: NSVT / number of mice, most severe ECG form: Normal (sinusal rhythm) / number of mice, most severe ECG form: SVT / number of mice, most severe ECG form: VPC: n=5 Clotrimazole, n=12 TRAM-34
# Source text: Telemetric ambulatory long-term ECG recordings, analogous to Holter monitoring in humans, were obtained with implantable transmitters. […] An implantable 3.5 grams wireless radiofrequency transmitter (DSI MM USA, device weight 3.8 grams) was aseptically inserted into a subcutaneous tissue pocket in the back as described in Katz, G., et al. Heart Rhythm 7, 1676-1682 (2010) and Kurtzwald-Josefson, E., et al. Heart Rhythm 11, 1471-1479 (2014)]. Animals were allowed to recover after surgery for at least 24 hours before any experiments. Baseline electrocardiograms (ECG) were obtained 15 minutes after IP injection of the appropriate vehicle (peanut oil or peanut oil supplemented with ethanol 1%). […] Telemetered ECG tracings were obtained in conscious mice at rest for one minute and during peak exercise (i.e. the first minute of recovery). In the treadmill exercise, mice were forced to exercise on a rodent treadmill; gradually increasing the speed up to a maximum of 15 m/minute. Ventricular tachycardia (VT) was defined as four or more consecutive ventricular beats. If this phenotype was consecutively observed for more than 15 seconds, it was defined as “sustained” ventricular tachycardia (SVT). Shorter VTs were characterized as “non-sustained” (NSVT). All other ventricular arrhythmias, such as premature beats, ventricular bigeminy, couplets and triplets were all defined as ventricular premature contractions (VPCs).
# A heart telemetry device was implanted in WT, CASQ2-D307H KI and CASQ2 KO mice for continuous ECG recording at rest and during treadmill exercise. For each session, continuous ECG recording was performed with the same animals receiving first intraperitoneal (IP) injection of vehicle (peanut oil) and then the SK4 channel blocker.
# The types of arrhythmic features were classified following their seriousness: sinusal rhythm (normal), ventricular premature contractions (VPC), non-sustained ventricular tachycardia (NSVT) and sustained ventricular tachycardia (SVT). For each mouse was considered the most severe form of arrhythmia recorded under ECG.
compound,measurement,setting,value
"Clc1ccccc1C(c1ccccc1)(c1ccccc1)n1cccn1 [TRAM-34, 1-[(2-chlorophenyl)diphenylmethyl]-1H-pyrazole]",DD slope,SAN cells,markedly reduced the DD slope
same,MDP,SAN cells,depolarized the MDP
same,beating rate,SAN cells,decreased the beating rate
same,cells in which pacing activity stopped,SAN cells,3 out of 7
same,occurrence of DADs,[1],drastically reduced
same,PR prolongation,"CASQ2-D307H KI mice; KI mice at rest, n=12",23%
same,heart rate decrease,"CASQ2-D307H KI mice; KI mice at rest, n=12",24±4%
same,sinus rate and PR interval,CASQ2-D307H KI mice; KI mice during treadmill exercise,significant sinus bradycardia and PR interval prolongation
same,mice with ECG arrhythmic features totally suppressed,"CASQ2-D307H KI mice; KI mice, resting conditions",9 out of 12
same,"number of mice, most severe ECG form: NSVT",CASQ2-D307H KI mice; KI at rest,0
same,"number of mice, most severe ECG form: Normal (sinusal rhythm)",CASQ2-D307H KI mice; KI at rest,9
same,"number of mice, most severe ECG form: SVT",CASQ2-D307H KI mice; KI at rest,0
same,"number of mice, most severe ECG form: VPC",CASQ2-D307H KI mice; KI at rest,3
same,"number of mice, most severe ECG form: NSVT",CASQ2-D307H KI mice; KI during Exercise,4
same,"number of mice, most severe ECG form: Normal (sinusal rhythm)",CASQ2-D307H KI mice; KI during Exercise,4
same,"number of mice, most severe ECG form: SVT",CASQ2-D307H KI mice; KI during Exercise,0
same,"number of mice, most severe ECG form: VPC",CASQ2-D307H KI mice; KI during Exercise,4

# — patent US11166940B2, “Treatment of cardiac disorders by blocking SK4 potassium channel” (Ramot at Tel-Aviv University Ltd., priority 2016, dated 2021)
